How the values were obtained:
morningglory = experiment: Test A greenhouse herbicide test, pre- and postemergence; format: in vivo, Ipomoea spp.; details: rated after sixteen days
Excerpt: Seeds of crabgrass (Digitaria spp.), barnyardgrass (Echinochloa crusgalli), cheatgrass (Bromus Secalinus), giant foxtail (Setaria faberii), wild oats (Avena fatua), velvetleaf (Abutilon theophrasti), morningglory (Ipomoea spp. , cocklebur (Xanthium pensylvanicum). sorghum, corn, barley, soybean, sugarbeet, cotton, rice, wheat and purple nutsedge (Cyperus rotundus) tubers were planted and treated preemergence with the test chemicals dissolved in a non-phytotoxic solvent. At the same time, these crop and weed species were treated with a soil/foliage application. At the time of treatment, the plants ranged in height from 2 to 18 cm. Treated plants and controls were maintained in a greenhouse for sixteen days, after which all species were compared to controls and visually rated for response to treatment. The ratings, summarized in Table A, are based on a numerical scale extending from 0 = no injury, to 10 = complete kill. The accompanying descriptive symbols have the following meanings: • B = burn; • C = chlorosis/necrosis; • D = defoliation; • E = emergence inhibition; • G = growth retardation; • H = formative effect; • U = unusual pigmentation; • X = axillary stimulation; • S = albinism; and • 6Y = abscised buds or flowers.

jimsonweed = experiment: Test B pan test in Sassafras sandy loam soil, pre- and postemergence; format: in vivo, Datura stramonium; details: scale 0 to 100
Excerpt: (§1) Three round pans (25 cm diameter by 12.5 cm deep) were filled with Sassafras sandy loam soil. One pan was planted with nutsedge (Cyperus rotundus) tubers, crabgrass (Digitaria sanguinalis), sicklepod (Cassia obtusifolia), jimsonweed (Datura stramonium), velvetleaf (Abutilon theophrasti), lambsquarters (Chenopodim album), rice (Oryza sativa) and teaweed (Sida spinosa). The second pot was planted with green foxtail (Setaria viridis), cocklebur (Xantium pensyivanicum), morningglory (lpomoea hederacea), cotton (Gossypium hirsutum), johnsongrass (Sorghum halepense), barnyardgrass (Echinochloa crusgalli), corn (Zea mays), soybean (Glycine max) and giant foxtail (Setaria faberi). The third pot was planted with wheat (Triticum aestivum), barley (Hordeum vulgare), wild buckwheat (Polgonum convolvulus L.), cheatgrass (Bromus secalinus L.), sugarbeet (Beta vulgaris), wild oats (Avena fatua), viola (Viola arvensis), blackgrass (Alopecurus myosuroides), and rape (Brassica napus). The plants were grown for approximately fourteen days, then sprayed postemergence with the chemicals dissolved in a non-phytotoxic solvent.
(§2) Three round pans (25 cm diameter by 12.5 cm deep) were filled with Sassafras sandy loam soil. One pan was planted with nutsedge tubers, crabgrass, sicklepod, jimsonweed, velvetleaf, lambsquarters, rice and teaweed. The second pot was planted with green foxtail, cocklebur, morningglory, cottom, johnsongrass, . barnyardgrass, corn, soybean and giant foxtail. The third pot was planted with wheat, barley, wild buckwheat, cheatgrass, sugarbeet, wild oat, viola, blackgrass and rape. The three pans were sprayed preemer gence with the chemicals dissolved in a non-phytotoxic solvent.
(§3) Treated plants and controls were maintained in the greenhouse for 24 days, then all rated plants were compared to controls and visually rated for plant response.
(§4) A dash (-) response means no test.

corn = experiment: as above; format: in vivo, Zea mays; details: scale 0 to 100
Excerpt: as §1, §2, §3, §4

CCOC(=O)c1c(CC#N)cccc1S(=O)(=O)NC(=O)Nc1nc(OC)cc(OC)n1 [Compound 3, 2-(cyanomethyl)-6 [[(4,6-dimethoxypyrimidin-2-yl)-aminocarbonyl]aminosulfonyl]benzoic acid, ethyl ester]
MORNING GLORY visual rating of response to treatment (morningglory; POSTEMERGENCE, RATE 0.01 KG/HA): 10C | MORNING GLORY visual rating of response to treatment (morningglory; POSTEMERGENCE, RATE 0.05 KG/HA): 10C | MORNING GLORY visual rating of response to treatment (morningglory; PREEMERGENCE, RATE 0.01 KG/HA): 2G | MORNING GLORY visual rating of response to treatment (morningglory; PREEMERGENCE, RATE 0.05 KG/HA): 9G | JIMSONWEED response rating (jimsonweed; POSTEMERGENCE, RATE 0001 G/HA): 30 | JIMSONWEED response rating (jimsonweed; POSTEMERGENCE, RATE 0004 G/HA): 60 | JIMSONWEED response rating (jimsonweed; POSTEMERGENCE, RATE 0016 G/HA): 100 | JIMSONWEED response rating (jimsonweed; POSTEMERGENCE, RATE 0062 G/HA): 100 | JIMSONWEED response rating (jimsonweed; PREEMERGENCE, RATE 0004 G/HA): 0 | JIMSONWEED response rating (jimsonweed; PREEMERGENCE, RATE 0016 G/HA): 0 | JIMSONWEED response rating (jimsonweed; PREEMERGENCE, RATE 0062 G/HA): 30 | CORN response rating (corn; POSTEMERGENCE, RATE 0001 G/HA): 90 | CORN response rating (corn; POSTEMERGENCE, RATE 0004 G/HA): 100 | CORN response rating (corn; POSTEMERGENCE, RATE 0016 G/HA): 100 | CORN response rating (corn; POSTEMERGENCE, RATE 0062 G/HA): 100 | CORN response rating (corn; PREEMERGENCE, RATE 0004 G/HA): 0 | CORN response rating (corn; PREEMERGENCE, RATE 0016 G/HA): 30 | CORN response rating (corn; PREEMERGENCE, RATE 0062 G/HA): 60

Reference: patent publication EP0318620A1, “Herbicidal sulfonamides” (E.I. DU PONT DE NEMOURS AND COMPANY, priority 1987, dated 1989)
